Experimental data from ChEMBL document CHEMBL1201862, “PubChem BioAssay data set” (2004).
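Results reflect a 48-hour exposure of cells in 96-well plates to compound at five concentrations. At the GI50, growth is halved.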 Calls of active or inactive are those of the source. No stated cut-off is given here; in the data, active = GI50 up to about 1.1 µM and inactive = higher.

What was measured:
Test in all cases: inhibition of tumour cell growth, NCI panel, 48 h
[1] = system: DLD-1
[2] = system: DMS-114
[3] = system: DMS-273
[4] = system: HOP-18
[5] = system: LXFL 529
[6] = system: RXF 631

Structure (SMILES)	GI50 [1]	GI50 [2]	GI50 [3]	GI50 [4]	GI50 [5]	GI50 [6]
Oc1cc(-c2ccccc2)nc2cc(Cl)ccc12	0.384 µM (active)	0.383 µM (active)	0.526 µM (active)	11.2 µM (inactive)	0.805 µM (active)	
O=C1CCC2(c3ccc(F)cc3)Nc3cc(Cl)ccc3N12 (stereo not drawn)	> 100 µM (inactive)	38.8 µM (inactive)	> 100 µM (inactive)	48.3 µM (inactive)	65.5 µM (inactive)	
O=C(CC1(O)C(=O)Nc2c(Cl)ccc(Cl)c21)c1ccc(Cl)cc1Cl (stereo not drawn)	28 µM (inactive)	19.3 µM (inactive)	16.4 µM (inactive)	35.1 µM (inactive)	14.6 µM (inactive)	
CCC1CCC2CCCC(C)N12 (stereo not drawn)	> 100 µM (inactive)	> 100 µM (inactive)	> 100 µM (inactive)	> 100 µM (inactive)	> 100 µM (inactive)	> 100 µM (inactive)
CC(=O)NNc1ncc(C(=O)/C=C/c2ccccc2C)s1	> 100 µM (inactive)	> 100 µM (inactive)	> 100 µM (inactive)	> 100 µM (inactive)		> 100 µM (inactive)
[O-][S+]1Cc2ccccc2CSS1 (stereo not drawn)	18.1 µM (inactive)	17.2 µM (inactive)	11.8 µM (inactive)	27.9 µM (inactive)	14.1 µM (inactive)	19.8 µM (inactive)
COC(=O)C1=CCS(=O)(=O)C1	> 100 µM (inactive)	> 100 µM (inactive)		> 100 µM (inactive)	> 100 µM (inactive)	> 100 µM (inactive)
O=C(c1ccccc1)[C@H]1Nc2ccc(Cl)cc2[C@H]2c3ccccc3O[C@H]21	14 µM (inactive)	15.8 µM (inactive)	18.7 µM (inactive)	11.7 µM (inactive)	15 µM (inactive)	
N#CC(/C(=N/NC(N)=S)C(=O)Nc1cccc(Cl)c1)c1ccccc1 (stereo not drawn)	> 100 µM (inactive)	> 100 µM (inactive)	> 100 µM (inactive)	> 100 µM (inactive)	> 100 µM (inactive)	> 100 µM (inactive)
O=C1C2C(C(=O)N1Cc1ccccc1)N(Cc1ccccc1)C(=O)N2Cc1ccccc1 (stereo not drawn)	> 100 µM (inactive)	> 100 µM (inactive)			> 100 µM (inactive)	> 100 µM (inactive)
COc1ccc(C2(CN(C)C)COc3cc(OC)c(OC)cc3C2=O)cc1OC (stereo not drawn)	20.1 µM (inactive)	23.6 µM (inactive)		> 100 µM (inactive)	20.1 µM (inactive)	75.7 µM (inactive)
CCOc1cn(C2OC(CO)C(O)C2O)c(=O)[nH]c1=O (stereo not drawn)	90.2 µM (inactive)	> 100 µM (inactive)	> 100 µM (inactive)	> 100 µM (inactive)	> 100 µM (inactive)	
CCCCC1(C(NC(=O)c2ccccc2Cl)c2ccncc2)C(=O)N(c2ccccc2)N(c2ccccc2)C1=O (stereo not drawn)	39.7 µM (inactive)	41.4 µM (inactive)	27 µM (inactive)	> 100 µM (inactive)	36.2 µM (inactive)	
Cc1cc2c(CC(=O)O)n[nH]c2c(C(=O)O)c1C	> 100 µM (inactive)		> 100 µM (inactive)	> 100 µM (inactive)	> 100 µM (inactive)	> 100 µM (inactive)
CCCCCCCCc1cc2c(O)c(c1)Cc1cc(CCCCCCCC)cc(c1O)Cc1cc(CCCCCCCC)cc(c1O)Cc1cc(CCCCCCCC)cc(c1O)Cc1cc(CCCCCCCC)cc(c1O)Cc1cc(CCCCCCCC)cc(c1O)C2	> 100 µM (inactive)	> 100 µM (inactive)		> 100 µM (inactive)	> 100 µM (inactive)	> 100 µM (inactive)
O=c1/c(=C/c2ccc(Cl)cc2Cl)sc2nc3ccccc3n12	> 100 µM (inactive)	> 100 µM (inactive)	> 100 µM (inactive)	> 100 µM (inactive)	> 100 µM (inactive)	> 100 µM (inactive)
CCc1cccc(C)c1NC(=O)CCc1nnc(SC)o1	> 100 µM (inactive)	> 100 µM (inactive)	> 100 µM (inactive)	> 100 µM (inactive)	> 100 µM (inactive)	
CO[C@H]1CC[C@]2(C)C3=CC[C@@]4(C)C(CC[C@@H]4C(C)CC[C@@H](C)C(C)C)C(=CCC2C1)O3 (stereo partly drawn)	> 25 µM (inactive)	> 25 µM (inactive)	> 25 µM (inactive)	> 25 µM (inactive)	> 25 µM (inactive)	
O=C1Sc2ccccc2C(=O)N2CSCC12 (stereo not drawn)	> 100 µM (inactive)	> 100 µM (inactive)	> 100 µM (inactive)	> 100 µM (inactive)	> 100 µM (inactive)	
